Bases are written 5' to 3'; sugars and linkages follow in the same order, as letters with counts (s phosphorothioate, o phosphodiester; PS: all linkages phosphorothioate). The collection does not say whether C is 5-methylated. l = locked nucleic acid (LNA); d = 2'-deoxy (DNA)
These sequences were tested against Tau (assay: rat primary cortical neurons, FLIPR, 25 uM ASO).
In the case of “TTACCAATTATCTTTAAATT (sugars l4 d12 l4, PS)”, the calcium oscillation score is reported as 61.9 % of control.
In the case of “GTCTTTATTAACACTCC (sugars l4 d11 l2, PS)”, the calcium oscillation score is reported as 63.3 % of control.
“TTTCATGTTAAATCCCT (sugars l4 d10 l3, PS)” was tested, and the calcium oscillation score was 94.2 % of control.
With “CTTTATTTCCAAATTCACT (sugars l4 d10 l1 d2 l2, PS)” the calcium oscillation score was 125 % of control.
For “TATACAGTTGGCCCTACCAT (sugars l3 d14 l3, PS)”, the calcium oscillation score was 16.7 % of control.
In the case of “ACCAGCTAGTGGTGCCACCT (sugars l3 d14 l3, PS)”, the calcium oscillation score is reported as 20.2 % of control.
In the case of AGTCAAGCATCACGTT (sugars l3 d10 l3, PS), the calcium oscillation score is reported as 42.2 % of control.
In the case of “TTATTTCCAAATTCACTTTT (sugars l5 d11 l4, PS)”, the calcium oscillation score is reported as 119 % of control.
“GCACCCACTTTCCTAATT (sugars l2 d14 l2, PS)” was tested, and the calcium oscillation score was 51.6 % of control.
With “CCATCATACTCCAAGTT (sugars l3 d12 l2, PS)” the calcium oscillation score was 60.8 % of control.
For TCATTCAGCCAATCAC (sugars l4 d9 l3, PS), the calcium oscillation score was 52.4 % of control.
“TTACACCATCCAAGTCA (sugars l4 d11 l2, PS)” was tested, and the calcium oscillation score was 75.5 % of control.
In the case of CAGCTAGCGTGGCGAG (sugars l3 d10 l3, PS), the calcium oscillation score is reported as 0 % of control.
For GGCGAGTCTACCATGT (sugars l3 d10 l3, PS), the calcium oscillation score was 43.4 % of control.
For GCCCTAAAGTCCCAGG (sugars l3 d10 l3, PS), the calcium oscillation score was 41.9 % of control.
For “AGGCAAAGGTTTATCTTCCA (sugars l3 d14 l3, PS)”, the calcium oscillation score was 33 % of control.
“CATCTCTCTAGACATCTC (sugars l2 d13 l3, PS)” was tested, and the calcium oscillation score was 64.6 % of control.
In the case of “CAGGTTAAGTGATTAACCAA (sugars l3 d14 l3, PS)”, the calcium oscillation score is reported as 17.4 % of control.
CTCTCAAAAATCAACGC (sugars l4 d9 l4, PS) was tested, and the calcium oscillation score was 66.3 % of control.
In the case of “TTCTCAAGTCTCTTTAA (sugars l3 d11 l3, PS)”, the calcium oscillation score is reported as 70.7 % of control.
For “AACATATATATTACACTTC (sugars l4 d11 l4, PS)”, the calcium oscillation score was 111 % of control.
With “ATCCAAGTCAATGCCTGGCT (sugars l3 d14 l3, PS)” the calcium oscillation score was 34.2 % of control.
For “ACAACAAACATCTAAACACC (sugars l3 d13 l4, PS)”, the calcium oscillation score was 84.5 % of control.
With TTGGCGTTCTCGCGGA (sugars l3 d10 l3, PS) the calcium oscillation score was 0 % of control.
For “TAATAGATCTTTCCCCTC (sugars l2 d13 l3, PS)”, the calcium oscillation score was 101 % of control.
With “TTTTATTTCCTCCGCCA (sugars l2 d13 l2, PS)” the calcium oscillation score was 18.5 % of control.
With “CAGACCATCAATTTCCC (sugars l2 d13 l2, PS)” the calcium oscillation score was 75.7 % of control.
CCTTTTCATGTTAAATC (sugars l4 d9 l4, PS) was tested, and the calcium oscillation score was 86.6 % of control.
CCCACCAAAGACTTCA (sugars l2 d11 l3, PS) was tested, and the calcium oscillation score was 58.3 % of control.
CCCAGCGTGATCTT (sugars l3 d8 l3, PS) was tested, and the calcium oscillation score was 46 % of control.
For “TCCATTCCCTCCAGAACCAT (sugars l3 d14 l3, PS)”, the calcium oscillation score was 61.9 % of control.
With TTACCCTTAAATATGC (sugars l4 d8 l4, PS) the calcium oscillation score was 73.3 % of control.
For AGAGGAACGTGTGGAT (sugars l3 d10 l3, PS), the calcium oscillation score was 25.9 % of control.
With GAGTTTGTGCAAGGTC (sugars l3 d10 l3, PS) the calcium oscillation score was 0 % of control.
“TCAACTGGTTTGTAGACTAT (sugars l3 d14 l3, PS)” was tested, and the calcium oscillation score was 29.9 % of control.
In the case of “TTATTTATTCTTTTTATTAT (sugars l4 d12 l4, PS)”, the calcium oscillation score is reported as 66.3 % of control.
AGGCACAAGTCCTTA (sugars l3 d9 l3, PS) was tested, and the calcium oscillation score was 107 % of control.
With “CCTAATAAAAACAATACTA (sugars l4 d11 l4, PS)” the calcium oscillation score was 62.3 % of control.
For “TCAGGTCAACTGGTTTGTAG (sugars l3 d14 l3, PS)”, the calcium oscillation score was 0 % of control.
TAGCAAACAGGATACA (sugars l3 d10 l3, PS) was tested, and the calcium oscillation score was 49.8 % of control.
In the case of “CAACTCTTAGCATCCACT (sugars l2 d14 l2, PS)”, the calcium oscillation score is reported as 51.6 % of control.
With TATTAATTATCTGCAC (sugars l3 d10 l3, PS) the calcium oscillation score was 27.1 % of control.
In the case of “CCCCACTTTTAATTAAAT (sugars l3 d11 l4, PS)”, the calcium oscillation score is reported as 95.2 % of control.
For “CTTTATTTCCAAATTCAC (sugars l4 d10 l4, PS)”, the calcium oscillation score was 110 % of control.
With ACGTTGCTAAGATCCA (sugars l3 d10 l3, PS) the calcium oscillation score was 18.1 % of control.
With CAACATTTGCACTCTC (sugars l4 d8 l4, PS) the calcium oscillation score was 67.7 % of control.
For CTCTTCAAATCATTCAA (sugars l4 d9 l4, PS), the calcium oscillation score was 68.4 % of control.
With “CATCTTAATTCATTTAATTC (sugars l4 d12 l4, PS)” the calcium oscillation score was 84.1 % of control.
In the case of CCATCACTTCGAACTC (sugars l3 d10 l3, PS), the calcium oscillation score is reported as ≥ 200 % of control.
“ATTGCAACTTTAACTCC (sugars l3 d10 l4, PS)” was tested, and the calcium oscillation score was 62.9 % of control.
CTGGTTTATGATGGAT (sugars l3 d10 l3, PS) was tested, and the calcium oscillation score was 0 % of control.
With “TTAGACTCCTTCTTTAGGCT (sugars l3 d14 l3, PS)” the calcium oscillation score was 26.2 % of control.
In the case of ACCATGATCTTAGGCT (sugars l3 d10 l3, PS), the calcium oscillation score is reported as 87.8 % of control.
For AACATCATGTCACACAC (sugars l4 d9 l4, PS), the calcium oscillation score was 39 % of control.
For “CAGTCTTTATTAACACT (sugars l3 d10 l4, PS)”, the calcium oscillation score was 50.7 % of control.
With TCCTGTGCTTCAGG (sugars l3 d8 l3, PS) the calcium oscillation score was 108 % of control.
GGCGGTGACTGCGAG (sugars l3 d9 l3, PS) was tested, and the calcium oscillation score was 51.5 % of control.
In the case of “GTAACCAACTTTCATCT (sugars l2 d12 l3, PS)”, the calcium oscillation score is reported as 78.7 % of control.
For “CTTTATTTCCAAATTCACT (sugars l3 d11 l5, PS)”, the calcium oscillation score was 121 % of control.
With ACCCCGAATTTACACC (sugars l3 d11 l2, PS) the calcium oscillation score was 97.5 % of control.
“GCCACACTTGGAGGTCACCT (sugars l3 d14 l3, PS)” was tested, and the calcium oscillation score was 4.52 % of control.
GCTAAGGCAAGGCCTA (sugars l3 d10 l3, PS) was tested, and the calcium oscillation score was 129 % of control.
With “TCCTCACTTTACACATTA (sugars l3 d13 l2, PS)” the calcium oscillation score was 62.5 % of control.
For “GGGACCCAATCTTCGACTGG (sugars l3 d14 l3, PS)”, the calcium oscillation score was 0 % of control.
In the case of GTCCTAATCCTGTGC (sugars l3 d9 l3, PS), the calcium oscillation score is reported as 36.5 % of control.
“CCAACTTTCATCTACTTTTC (sugars l2 d16 l2, PS)” was tested, and the calcium oscillation score was 99.7 % of control.
In the case of “GACACCTCGTCAGCTAGCGT (sugars l3 d14 l3, PS)”, the calcium oscillation score is reported as 11.7 % of control.
With CAGAGGAACGTGTGGA (sugars l3 d10 l3, PS) the calcium oscillation score was 29.6 % of control.
For “CTAATTACATTTTTTCTT (sugars l4 d10 l4, PS)”, the calcium oscillation score was 63.9 % of control.
In the case of CTAATCCTGTGCTTC (sugars l3 d9 l3, PS), the calcium oscillation score is reported as 73.1 % of control.
For ATCTTAGGCTGGCCC (sugars l3 d9 l3, PS), the calcium oscillation score was 50.6 % of control.
With CTAAAGTCCCAGGTC (sugars l3 d9 l3, PS) the calcium oscillation score was 40.5 % of control.
“CACTCAAGAAATGGTTTGCT (sugars l3 d14 l3, PS)” was tested, and the calcium oscillation score was 9.52 % of control.
“TTCCATCCTAAGTCAACC (sugars l3 d13 l2, PS)” was tested, and the calcium oscillation score was 70.6 % of control.
With “TTGTAGACTATTTGCACACT (sugars l3 d14 l3, PS)” the calcium oscillation score was 40.7 % of control.
In the case of GATGCAGGAGTTGTAA (sugars l3 d10 l3, PS), the calcium oscillation score is reported as 0 % of control.
For “CTTTATTTCCAAATTCACTT (sugars l4 d11 l5, PS)”, the calcium oscillation score was 136 % of control.
For GCAACAATCCAACCAC (sugars l2 d10 l4, PS), the calcium oscillation score was 76.3 % of control.
In the case of AATAAGAAAGGAACGC (sugars l4 d7 l5, PS), the calcium oscillation score is reported as 97.6 % of control.
With CTAAACCATGATCTTA (sugars l3 d10 l3, PS) the calcium oscillation score was 21.1 % of control.
With “ACTTTATCCCTCCATGA (sugars l3 d11 l3, PS)” the calcium oscillation score was 39.6 % of control.
In the case of “TCCCTAATCCCCAAAGA (sugars l2 d13 l2, PS)”, the calcium oscillation score is reported as 53.9 % of control.
CATTTTCTGACTCTAAT (sugars l4 d9 l4, PS) was tested, and the calcium oscillation score was 57.8 % of control.
For ACTGTTACACATTTATC (sugars l4 d9 l4, PS), the calcium oscillation score was 79.8 % of control.
For GAGTCTACCATGTCGA (sugars l3 d10 l3, PS), the calcium oscillation score was 65.2 % of control.
With “ACTTTATTTCCAAATTCACTTTTAC (sugars llldddddddddddddddddldldl, PS)” the calcium oscillation score was 17.7 % of control.
For “TCAGCTCTTCCATAAGCAGG (sugars l3 d14 l3, PS)”, the calcium oscillation score was 38.5 % of control.
“TATTTCCAAATTCACTTTTA (sugars llddlldddddddddlldll, PS)” was tested, and the calcium oscillation score was 123 % of control.
TGTCGATGCTGCCGGT (sugars l3 d10 l3, PS) was tested, and the calcium oscillation score was 34.5 % of control.
In the case of “TGGCCATCTTATGCTGACCA (sugars l3 d14 l3, PS)”, the calcium oscillation score is reported as 29.4 % of control.
“CTTTATTTCCAAATTCACTT (sugars ldlllddddddddddlldll, PS)” was tested, and the calcium oscillation score was 134 % of control.
With CCCAATCTTCGACTGG (sugars l3 d10 l3, PS) the calcium oscillation score was 21.7 % of control.
In the case of “CAGGGACGTGGGTGATATTG (sugars l3 d14 l3, PS)”, the calcium oscillation score is reported as 0 % of control.
“CTCCTAGAACACAACAC (sugars l3 d10 l4, PS)” was tested, and the calcium oscillation score was 50.9 % of control.
For “CAGACCATCAATTTCCCT (sugars l2 d14 l2, PS)”, the calcium oscillation score was 72.5 % of control.
In the case of “TTTATTTCCAAATTCACTTT (sugars l4 d11 l5, PS)”, the calcium oscillation score is reported as 138 % of control.
TGATTGTGGGCTTA (sugars l3 d8 l3, PS) was tested, and the calcium oscillation score was 28.7 % of control.
With “ATTAACCCTTGATCATATTT (sugars l3 d14 l3, PS)” the calcium oscillation score was 40.5 % of control.
In the case of CAGTCTTTATTAACAC (sugars l4 d8 l4, PS), the calcium oscillation score is reported as 54 % of control.
With “ACACCATCCAAGTCAAT (sugars l3 d10 l4, PS)” the calcium oscillation score was 16.2 % of control.
With CCCATTTACAATTCAG (sugars l3 d10 l3, PS) the calcium oscillation score was 52.6 % of control.
For “ATCATAATCCTACCACCA (sugars l3 d13 l2, PS)”, the calcium oscillation score was 87.5 % of control.
With “TCCCCACCCAAACTCCAA (sugars l2 d14 l2, PS)” the calcium oscillation score was 76.5 % of control.
With CAGAACTAAATTTACC (sugars l4 d8 l4, PS) the calcium oscillation score was 51.1 % of control.
“TCTGTCACTTACTACTCA (sugars l3 d13 l2, PS)” was tested, and the calcium oscillation score was 66 % of control.
With CAGATTTAATTCTCACT (sugars l4 d9 l4, PS) the calcium oscillation score was 77.7 % of control.
“ATTTCCAAATTCACTTTTAC (sugars llldldddddddddllddll, PS)” was tested, and the calcium oscillation score was 131 % of control.
GGTCTGGCATGGGC (sugars l3 d8 l3, PS) was tested, and the calcium oscillation score was 0 % of control.
In the case of TACTAGCCCACCCATC (sugars l3 d10 l3, PS), the calcium oscillation score is reported as ≥ 200 % of control.

From the OligoGym collection
